The record followed here is article PMC7026418, “The kinase polypharmacology landscape of clinical PARP inhibitors” (Scientific Reports, 2020).

Holding throughout (assay): biochemical
Holding throughout (set-up): DiscoveRx KINOMEscan active site-directed competition binding; percent of control kinase bound to immobilised ligand

For assay [1], the target named is T1, BRSK1 (Homo sapiens, UniProt Q8TDC3).
T1 sequence (Q8TDC3 1-778): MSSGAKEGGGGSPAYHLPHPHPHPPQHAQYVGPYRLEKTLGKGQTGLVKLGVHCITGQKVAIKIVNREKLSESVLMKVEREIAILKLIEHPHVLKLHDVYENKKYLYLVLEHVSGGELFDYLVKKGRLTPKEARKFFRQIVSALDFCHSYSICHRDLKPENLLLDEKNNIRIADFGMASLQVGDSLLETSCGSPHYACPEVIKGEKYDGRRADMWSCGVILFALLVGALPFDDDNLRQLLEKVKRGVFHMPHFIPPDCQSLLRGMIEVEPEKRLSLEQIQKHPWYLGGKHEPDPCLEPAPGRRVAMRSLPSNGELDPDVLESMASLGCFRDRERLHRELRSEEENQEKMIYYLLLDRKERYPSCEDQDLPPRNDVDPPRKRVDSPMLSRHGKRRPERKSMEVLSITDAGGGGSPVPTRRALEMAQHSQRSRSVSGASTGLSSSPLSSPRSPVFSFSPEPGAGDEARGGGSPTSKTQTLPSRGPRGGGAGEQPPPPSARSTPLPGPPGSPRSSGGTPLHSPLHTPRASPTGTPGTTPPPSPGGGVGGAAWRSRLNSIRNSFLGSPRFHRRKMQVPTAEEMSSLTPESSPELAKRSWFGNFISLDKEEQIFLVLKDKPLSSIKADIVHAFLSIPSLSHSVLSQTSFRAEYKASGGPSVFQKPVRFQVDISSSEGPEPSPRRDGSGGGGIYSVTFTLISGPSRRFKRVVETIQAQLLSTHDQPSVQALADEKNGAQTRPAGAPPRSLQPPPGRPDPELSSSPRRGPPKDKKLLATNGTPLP

The target in assay [2] is CSNK2A2 (Homo sapiens, UniProt P19784).
For assay [3], the target named is T2, ERK8 (Homo sapiens, UniProt Q8TD08).
T2 construct: gene MAPK15
T2 sequence (Q8TD08 1-544): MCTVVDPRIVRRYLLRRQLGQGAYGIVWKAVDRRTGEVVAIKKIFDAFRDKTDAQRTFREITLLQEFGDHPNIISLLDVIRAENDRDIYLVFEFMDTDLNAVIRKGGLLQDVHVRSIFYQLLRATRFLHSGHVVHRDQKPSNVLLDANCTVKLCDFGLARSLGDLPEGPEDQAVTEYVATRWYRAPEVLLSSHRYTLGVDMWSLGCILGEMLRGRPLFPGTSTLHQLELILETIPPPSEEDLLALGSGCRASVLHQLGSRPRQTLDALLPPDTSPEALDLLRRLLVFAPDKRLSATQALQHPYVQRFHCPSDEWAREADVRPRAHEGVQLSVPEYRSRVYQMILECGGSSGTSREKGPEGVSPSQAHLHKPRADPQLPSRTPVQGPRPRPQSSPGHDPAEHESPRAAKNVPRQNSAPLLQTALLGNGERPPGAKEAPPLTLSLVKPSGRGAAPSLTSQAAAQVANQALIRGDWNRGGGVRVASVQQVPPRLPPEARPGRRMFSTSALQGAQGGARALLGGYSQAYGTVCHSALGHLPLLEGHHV

The target in assay [4] is T3, BRSK2 (Homo sapiens, UniProt Q8IWQ3).
T3 sequence (Q8IWQ3 1-736): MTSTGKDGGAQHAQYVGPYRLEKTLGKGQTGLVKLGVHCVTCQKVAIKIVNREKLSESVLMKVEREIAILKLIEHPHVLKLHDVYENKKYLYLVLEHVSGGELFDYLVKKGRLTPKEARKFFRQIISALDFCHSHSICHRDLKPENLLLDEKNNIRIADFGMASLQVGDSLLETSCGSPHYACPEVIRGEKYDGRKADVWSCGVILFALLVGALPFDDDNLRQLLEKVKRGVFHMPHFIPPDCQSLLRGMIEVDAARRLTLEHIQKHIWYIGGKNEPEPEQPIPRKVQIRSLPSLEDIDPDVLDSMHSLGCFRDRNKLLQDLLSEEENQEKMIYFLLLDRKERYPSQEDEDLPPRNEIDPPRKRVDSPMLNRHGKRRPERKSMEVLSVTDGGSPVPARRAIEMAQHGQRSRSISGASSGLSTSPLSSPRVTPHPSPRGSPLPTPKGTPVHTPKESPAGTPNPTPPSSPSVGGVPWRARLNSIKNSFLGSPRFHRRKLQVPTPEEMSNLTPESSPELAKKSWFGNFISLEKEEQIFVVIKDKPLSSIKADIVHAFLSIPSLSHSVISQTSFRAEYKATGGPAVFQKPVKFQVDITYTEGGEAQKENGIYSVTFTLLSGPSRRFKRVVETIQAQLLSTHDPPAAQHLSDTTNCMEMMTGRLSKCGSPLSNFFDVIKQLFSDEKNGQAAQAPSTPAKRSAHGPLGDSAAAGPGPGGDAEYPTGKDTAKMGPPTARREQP

Assay [5] deals with T4, CDKL2 (Homo sapiens, UniProt Q92772).
T4 sequence (Q92772 1-493): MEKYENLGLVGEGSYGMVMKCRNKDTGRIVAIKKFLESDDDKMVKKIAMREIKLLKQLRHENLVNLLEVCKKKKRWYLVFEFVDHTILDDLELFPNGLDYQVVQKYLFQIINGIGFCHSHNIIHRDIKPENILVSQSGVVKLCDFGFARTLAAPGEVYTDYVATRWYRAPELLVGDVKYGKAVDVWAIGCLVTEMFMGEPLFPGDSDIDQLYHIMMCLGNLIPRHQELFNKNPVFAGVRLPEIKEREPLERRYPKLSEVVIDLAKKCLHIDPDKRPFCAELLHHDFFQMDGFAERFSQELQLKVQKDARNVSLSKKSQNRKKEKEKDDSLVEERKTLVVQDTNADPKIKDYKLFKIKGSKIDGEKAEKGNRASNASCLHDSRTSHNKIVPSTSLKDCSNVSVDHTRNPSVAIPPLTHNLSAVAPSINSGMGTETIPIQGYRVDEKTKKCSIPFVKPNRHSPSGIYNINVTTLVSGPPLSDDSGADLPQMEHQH

Where [6] appears, read: read-out: Rucaparib / %Ctrl @ 10000nM, binding competition, % of control.
The mark [7] stands for this setting: read-out: Talazoparib (BMN 673) / %Ctrl @ 10000nM.
Setting [8] is: read-out: Niraparib (MK-4827) / %Ctrl @ 10000nM.
The mark [9] stands for this setting: read-out: Olaparib / %Ctrl @ 10000nM.

Read-outs that look alike come from different tables or passages of the source.

Sequence of CSNK2A2 (P19784 whole entry): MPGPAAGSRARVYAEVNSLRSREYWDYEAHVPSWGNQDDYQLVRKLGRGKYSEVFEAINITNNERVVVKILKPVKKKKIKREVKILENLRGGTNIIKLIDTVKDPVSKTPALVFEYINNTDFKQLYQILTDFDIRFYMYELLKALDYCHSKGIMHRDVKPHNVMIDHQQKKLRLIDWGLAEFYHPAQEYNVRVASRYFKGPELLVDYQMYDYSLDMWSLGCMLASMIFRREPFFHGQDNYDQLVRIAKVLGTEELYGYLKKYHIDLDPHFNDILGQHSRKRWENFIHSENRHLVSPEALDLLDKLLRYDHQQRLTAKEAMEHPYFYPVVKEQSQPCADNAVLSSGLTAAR

Consider `CNCc1ccc(-c2[nH]c3cc(F)cc4c3c2CCNC4=O)cc1` [Rucaparib], for which the percent of control binding at 10 µM in assay [1] (setting [6]) came to 74%; in assay [2] (setting [6]), 2%; in assay [3] (setting [6]), 86%; in assay [4] (setting [6]), 76%; in assay [5] (setting [6]) it was 59%.

In the case of `Cn1ncnc1[C@H]1c2n[nH]c(=O)c3cc(F)cc(c23)N[C@@H]1c1ccc(F)cc1` [Talazoparib], the percent of control binding at 10 µM worked out at 100% in assay [1] (setting [7]); 77% in assay [2] (setting [7]); 88% in assay [3] (setting [7]); 63% in assay [4] (setting [7]); 100% in assay [5] (setting [7]).

Take `NC(=O)c1cccc2cn(-c3ccc([C@@H]4CCCNC4)cc3)nc12` [Niraparib]: the percent of control binding at 10 µM in assay [1] (setting [8]) came out at 92%; in assay [2] (setting [8]), 1.2%; in assay [3] (setting [8]), 61%; in assay [4] (setting [8]), 91%; in assay [5] (setting [8]), 23%.

On to `O=C(c1cc(Cc2n[nH]c(=O)c3ccccc23)ccc1F)N1CCN(C(=O)C2CC2)CC1` [Olaparib], for which the percent of control binding at 10 µM in assay [1] (setting [9]) worked out at 91%; in assay [2] (setting [9]) it was 83%; in assay [3] (setting [9]) it was 97%; in assay [4] (setting [9]) it was 95%; in assay [5] (setting [9]) it was 99%.
